In patent US20040072790A1, “Safe natural pharmaceutical composition for treating cancer” (priority 2002, published 2004):

What was measured:
[1] = system: NNK-induced pulmonary adenomas; assay: NNK-induced lung tumorigenesis; assay type: in vivo; conditions: mice, drug by injection 20 mg/kg daily, 10 μmol NNK i.p., sixteen weeks
Description: Every group had 20 mice For treatment group, each mouse was gave Drug by injection at dose of 20 mg/kg daily. For control group, each mouse was gave same volume of physiological saline Three days later, mice were gave 10 μmol NNK (in 0.1 ml saline) by i.p injection. Sixteen weeks after these treatments the mice were killed and pulmonary adenomas were counted The statistical significance of bioassay data was determined by student's test.

gastric cancer cells = assay: Diversion of gastric cancer cells, NBT; assay type: cell-based
Description: The gastric cancer cells and normal cells were cultured in PRMI 1640 medium supplement with 10% FCS serum Other method is similar to example 10

L615 transplanted tumor = assay: Growth of transplanted tumor in mice; assay type: in vivo; conditions: intraperitoneally, other drugs 20 mg/kg, sacrificed on the 12th day
Description: Male mice, weight 20-22 g, were used in the experiment 1×10^7 tumor cells were injected to mouse and other drugs injected intraperitoneally began second day. All mice were sacrificed on the 12th day, isolated the tumor and weighed and calculated the inhibition rate of tumor weight
The effect of other drugs and HHT on the growth of animal transplanted tumor as illustrated by the Table 6 20 mg/kg of other drugs could inhibit the growth of L615 transplanted tumor.

[2] = system: lipid peroxidation, liver microsome; assay: Lipid peroxidation in liver microsome (MDA, TBA); assay type: biochemical, rats; conditions: drug 50 μM, 37° C.
Description: The liver microsome (1 mg protein) in 0.15 M KCl, 0 25 M Tris-HCl buffer, pH 7.5, 2 mμ ADP, 10 μM FeSO4 and Drug B (50 μM) were incubated at 37° C. for 5 min The reactions were terminated after 30 min by added 2 ml thiobarbituric acid (TBA) and content of the malondialdehyde (MDA) formed was determined.

human cancer cells = assay: Inhibition of tumor cell proliferation; assay type: cell-based; conditions: 1 μg/ml drug, 72 hours
Description: Human tumor cell lines Hela leukemia HL-60, malignant melanocarcinoma B16, oral epidermoid carcinoma (KB), lung carcinoma (A549), breast carcinoma MCF-7, adenocarcinoma of stomach Animal tumor cell lines Walker carcinoma, LLC-WRC-256, malignant melanoma (RMMI 1846), 3T3, and S-180 sarcoma (CCRF-180). All lines were routinely cultured in the RPMI1640 medium supplemented 20% fetal calf serum. The experiment was carried out in 96 microplate, each well had 5×10^5 cells and given desired concentration of 1 μg /ml (1×10^−6 g/ml) drug Then the plate was incubated at 37° C. in an atmosphere of humidified air enriched with 5 percent carbon dioxide for 72 hours
Inhibition percent rate of tumor cell proliferation was obtained according to the bellow formula [formula]

[3] = system: Human leukemia cells (HL-60); assay: Apoptosis of human leukemia cells; assay type: cell-based
Description: Human leukemia cells (HL-60) were grown in RPMI Medium 1640 supplemented with 10% (v/v) heat-inactivated FBS (56° C. for 30 min) at 37° C. in a humidified 95% air/5% CO2 atmosphere. Cells were seeded at a level of 2×10^5 cells/ml Cells were allowed to attain a maximum density of 1 2×10^6 cells/ml before being passed by dilution into fresh medium to a concentration of 2×10^5 cells/ml Cell pellets containing 5×10^6 cells were fixed with 2 5% glutaraldehyde in cacodylate buffer (pH 7 4), dehydrated through graded alcohol, and infiltrated with LX-112 epoxy resin. After overnight polymerization at 60° C. 1-μm sections were cut with glass knives using a microtome.
(§1) Cells ([…] were incubated in 10 ml IMDM plus […] heat-inactivated fetal calf serum. Samples were incubated for 24 hours with various concentrations of drugs Control samples received the same amount of media, without drug addition After 24 hours of incubation the samples were pelleted and fixed in ethanol 705 for 15 minutes at 4° C., after three washes in PBS, the cells were treated with PNase I 0.5 mg/ml for 15 minutes at 37° C. The cells were harvested by centrifugation and resuspended in 50 μg/ml propidium iodide in PBS. Analysis (upon acquisition of 10,000-20,000 events) was performed on a FACscan flow cytometer with the FL2 detector in logarithmic mode, using Lysis II software (Becton Dickinson). Apoptotic cells were located in the hypodiploid region of the histogram, due to chromosome condensation and fragmentation
(§2) For evaluation of apoptosis by flow cytometry, cells were fixed and permeabilized in 1% paraformaldehyde and ice-cold 70% ethanol Digoxigenin-dUTP was incorporated at the 3′OH ends of the fragmented DNA in the presence of terminal deoxynucleotidyltranserase, and the cells were incubated with FITC-labeled anti-digoxigenin-dUTP and with propidium iodide. Green (apoptotic cells) and orange (total DNA) fluorescence were measured with a FACScan flow cytometer and analyzed with LYSIS It and CELLFIT programs Data were analyzed by Student's t-test P values were considered significant when <0.05.
(§3) Untreated and treated HL-60 cells collected by centrifugation, washed in phosphate buffered saline and re-suspended at a concentration of 5×10^6 cells and 0.1% RNase A. The mixture was incubated at 37° C. for 30 min and then incubated for an additional 30 min at 37° C. Buffer was added and 25 μl of the tube content transferred to the Horizontal 1.5% agarose gel electrophoresis was performed at 2 V/cm DNA in gels visualized under UV light after staining with ethidium Bromide (5 μg/ml)
DNA fragmentation assays DNA cleavage was performed, quantitation of fractional solubilized DNA by diphenylamine assay and the percentage of cells harboring fragmented DNA determined by in labeling techniques For the diphenylamine assay, 5×10^6 cells were lysed in 0 5 mL lysis buffer (5 mmol/L Tris-HCI, 20 mmol/L DTA, and 0 5% Triton X-100, pH 8 0) at 4° C. […] DNA was precipitated with 0.5 N perchloric acid and quantitated using diphenylamine reagent. The cell cycle distribution was determined 4 hours after addition of drug and represents mean±SD of 5 independent experiments
(§4) Apoptosis of HL-60 cells was assessed by changes in cell morphology and by measurement of DNA nicks using the Apop Tag Kkt (Oncor, Gaithersburg, MD). […] These changes are detected on cytospin preparations stained with Diff-Quick Stain Set Apoptotic cells were enumerated in a total of about 300 cells by light microscopy

[4] = Toxic doses for mice (repeated injection); assay type: in vivo; conditions: 38 normal mice, injection 2 mg/kg/day×5, observation period of 5 days
Description: Toxic doses for dogs 0 16 mg/kg/day×7 of HHT was established as the toxic doses. Toxic doses for mice In 38 normal mice after injection of HHT of 2 mg/kg/day×5 with the observation period of 5 days about 50% of the mice died.

carcinogen-DNA binding = assay: Inhibition of carcinogen-DNA binding; assay type: cell-based
Description: Cells were maintained in 75-cm^2 tissue culture flask with media supplemented with retinoic acid (0 1 μg/ml) and epinephrine (0 5 μg/ml) The cells were passage when they reached approximately 80% confluence and were maintained at 37° C. in 5% CO2. Cells were plated at a density of 5×10^5 cells/well in 6-well tissue culture plates and allowed to incubated for 18 h at 37° C. in 5% CO2 Following incubation, the DNA was harvested and resuspended in Tris-EDTA buffer RNA was removed by treating with RNase T1 and RNase A at 37° C. for 1 h. An aliquot was used for determining the DNA content by the absorbency at 260 nm, and the rest of the sample was used to determine the radioactivity; the percentage inhibition of carcinogen-DNA binding was determined by measuring the cpm/mg of DNA in the carcinogen

HL-60 cells = assay: Diversion (differentiation) of human leukemic cells, NBT reduction; assay type: cell-based; conditions: IND, MAT, YLE, LIK, APN and PYE 50 ng/ml, higher NBT (%) means higher normal cells
Description: HL-60 cells were established from a patient with acute myeloid leukemia. The cells were cultured in culture flasks with RPMI plus 10% FCS
Differentiation of HL-60 cells was assessed by their abilities to produced superoxide as measured by reduction of NBT, by NSE staining and by morphology as detected on cytospin preparations stained with Diff-Quick stain Set, and by analysis of membrane-bound differentiation markers with two-color immunofluorescence Briefly, cells were preincubated at 4° C. for 60 min in 10% human AB serum and then with FITC-conjugated mouse IgGI isotype control Analysis of fluorescence was performed on a flow cytometer.
NBT % indicated percentage of normal cells

tyrosine kinase (TK) = assay: Tyrosine kinase (TK) assay of HL-60 leukemia cells; assay type: cell-based, human
Description: Tyrosine kinase (TK) Assay. TK was measured by a modification of the method of Braun et al Briefly, H-60 leukemia cells were plated at a density of 5×10^5 cells in […], and divided control and treatments groups for incubation 24 hours at 37° C. with 5% CO2. The cells were collected by scraping, washed twice with phosphate-buffered saline, and resuspended at density of 10^6 cells/ml in 5 mM HEPESs buffer (pH 7.4). The cells were then resuspended in 1 ml of buffer containing 5 mM HEPES (pH 7.6), 1 mM MgCl2 and ImM EDTA, then placed on ice bath The cell membrane was disrupted by ultra sound and centrifuged at 1,000×g for 10 minutes The supernatant was ultra centrifuged at 30,000×g for 30 minutes at 4° C. The pellet was resuspended in 0 3 ml of buffer containing 25 mM HEOES, centrifuged at 12,000×g for 5 minutes The resulting supernatant was used for TK assay. Content of protein was determined 10 μg of protein placed in 20 mM HEPES (pH 7 6), 15 mM MgCl2, 10 nM ZnCl2 and 5% (v/v) nonidet P-40, with or without substrate [glutamic acid (GT), mg/ml]. After 5 minutes incubation at 25° C., the reaction was initiated by the addition of 25 μM [γ^32P] ATP (3 ci/mmol) After 10 minutes, the reaction was stopped by the addition of 20 mM cold ATP. 50 μl of the mixtures were spotted on glass microfiber filter discs and washed three times with cold trichloroacetic acid (TCA), contained 1 mM sodium pyrophosphate Air dried. Radioactivity was determined by liquid scintillation spectrometry. The net TK activity was determined after correcting for endogenous TK activity

Normal cells = assay: Apoptosis of normal cells; assay type: cell-based
Description: as §1, §2, §3
DNA fragmentation assays DNA cleavage was performed, quantitation of fractional solubilized DNA by diphenylamine assay and the percentage of cells harboring fragmented DNA determined by in labeling techniques For the diphenylamine assay, 5×10^6 cells were lysed in 0 5 mL lysis buffer (5 mmol/L Tris-HCI, 20 mmol/L DTA, and 0 5% Triton X-100, pH 8 0) at 4° C. Lysates were centrifuged (15,000 g) for separation of high molecular weight DNA (pellet) and DNA cleavage products (supernatant). DNA was precipitated with 0.5 N perchloric acid and quantitated using diphenylamine reagent. The cell cycle distribution was determined 4 hours after addition of drug and represents mean±SD of 5 independent experiments
as §4

Substance: Homoharringtonine [HHT]
- Tumor incidence (%) [1]: 35.8 ± 4.5%
- NBT (%) (gastric cancer cells): 58 ± 8.9 %
- Inhibition (%) of transplanted tumor (tumor weight) (L615 transplanted tumor): 68 ± 7.2%
- Nmoles MDA/mg protein [2]: 8.5 ± 1.0 Nmoles MDA/mg protein
- Inhibition (%) of growth of cancer cells (human cancer cells): 73.8 ± 8.1%
- Apoptosis (%) ([3]; Human leukemia cell, HHT 50 ng/ml alone or with 50 ng/ml of the other drug (Table 4)): 42.8 ± 5.2%
- Apoptosis (%) ([3]; Human leukemia cells, HHT 10 ng/ml): 33.8 ± 4.8 %
- Apoptosis (%) ([3]; Human leukemia cells, HHT 50 ng/ml): 42.8 ± 5.2 %
- Apoptosis (%) ([3]; Human leukemia cells, HHT 100 ng/ml): 60.2 ± 8.9 %
- Apoptosis (%) ([3]; Human leukemia cells, HHT 500 ng/ml): 92.0 ± 10.8 %
- mice died [4]: about 50%
- Inhibition (%) of carcinogen-DNA binding (carcinogen-DNA binding): 56.8 ± 6.2%
- NBT (%) (HL-60 cells): 65 ± 7.0 %
- inhibition of TK activity (tyrosine kinase (TK); HL-60, 10^−8 M): 12.2%
- % of control activity (TK) (tyrosine kinase (TK); HL-60 leukemia cells, 10^−6 M, 24 hours): 0.6%
- % of control activity (TK) (tyrosine kinase (TK); HL-60 leukemia cells, 10^−7 M, 24 hours): 21.5 ± 4.0%
- % of control activity (TK) (tyrosine kinase (TK); HL-60 leukemia cells, 10^−8 M, 24 hours): 87.8 ± 12%
- % of control activity (TK) (tyrosine kinase (TK); Table 8, HHT alone or with other drug, concentration not given): 21.5 ± 4.0%
- Apoptosis (%) (Normal cells; HHT 10 ng/ml): 16.5 ± 2.0 %
- Apoptosis (%) (Normal cells; HHT 50 ng/ml): 18.5 ± 2.5 %
- Apoptosis (%) (Normal cells; HHT 50 ng/ml alone or with 50 ng/ml of the other drug (Table 4)): 18.5 ± 2.5%
- Apoptosis (%) (Normal cells; HHT 100 ng/ml): 22.0 ± 3.5 %
- Apoptosis (%) (Normal cells; HHT 500 ng/ml): 29.5 ± 5.2 %
